Results on 13 compounds are retold here after patent US20260297060A1, “COMPOUNDS FOR THE DEGRADATION OF MUTANT BRAF” (C4 THERAPEUTICS, INC., priority 2023, published 2026).

Like-named read-outs stand apart in the source and are kept apart here. Some results are limits rather than exact numbers.

The subject of one experiment is A375-NRAS^Q61K cells. Nature of the experiment: CTGlo Cell Viability Assay, A375-NRAS^Q61K (A375.11) cells, 96 hours. Format: cell-based, human. The note with it: A375.11 (A375-NRAS^Q61K) cells; for CTGlo A375.11 96 hours Emax / Emax: lowest % viability achieved. Put shortly:
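A375 cells carrying BRAF V600E and NRAS Q61K were seeded at 250 cells/well with a 10-point half-log dose series (max 10 μM final). After 96 h at 37 °C, viability was read as ATP luminescence (CellTiter-Glo), background-subtracted and normalized to DMSO (100%). GI50 from 4-parameter fit; Emax is the lowest % viability.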

For a further experiment, the target named is T1, BRAF V600E (Homo sapiens, UniProt P15056+Q96SW2, V600E).
T1 construct: knock-in of the HiBiT tag to the endogenous BRAF V600E locus; host or cells: A375.10 (A375 clonal line, CRISPR HiBiT knock-in at the endogenous BRAF V600E locus)
As to the kind of experiment: BRAF V600E HiBiT Degradation Assay. Format: cell-based. The essentials:
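Endogenous HiBiT knock-in on BRAF V600E in A375 cells (clone A375.10); 11-point half-log series, top 10 μM, 2, 6 or 24 h at 37° C. Lytic HiBiT luminescence, background-subtracted, normalized to DMSO; 4-parameter fit gives DC50, Emax (residual protein) and IP (inflection point).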

The mark [1] stands for this setting: A375.10 cells, BRAF V600E, 2 hours, inflection point, read-out: HiBiT-Degradation A375.10 BRAF 2 hours IP.
Setting [2] is: A375.10 cells, BRAF V600E, 2 hours, read-out: HiBiT-Degradation A375.10 BRAF 2 hours DC50.
Setting [3] is: A375.10 cells, BRAF V600E, 2 hours, residual protein remaining.
Setting [4] is: A375.10 cells, BRAF V600E, 2 hours, residual protein remaining, read-out: HiBiT-Degradation A375.10 BRAF 2 hours Emax.
Where [5] appears, read: read-out: HiBiT-Degradation A375.10 BRAF 2 hours Emax, A375.10 cells, BRAF V600E, 2 hours, residual protein remaining.
Setting [6] is: read-out: HiBiT-Degradation A375.10 BRAF 2 hours DC50, A375.10 cells, BRAF V600E, 2 hours.
[7] abbreviates: read-out: HiBiT-Degradation A375.10 BRAF 2 hours IP, A375.10 cells, BRAF V600E, 2 hours, inflection point.

T1 sequence (P15056 whole entry V600E): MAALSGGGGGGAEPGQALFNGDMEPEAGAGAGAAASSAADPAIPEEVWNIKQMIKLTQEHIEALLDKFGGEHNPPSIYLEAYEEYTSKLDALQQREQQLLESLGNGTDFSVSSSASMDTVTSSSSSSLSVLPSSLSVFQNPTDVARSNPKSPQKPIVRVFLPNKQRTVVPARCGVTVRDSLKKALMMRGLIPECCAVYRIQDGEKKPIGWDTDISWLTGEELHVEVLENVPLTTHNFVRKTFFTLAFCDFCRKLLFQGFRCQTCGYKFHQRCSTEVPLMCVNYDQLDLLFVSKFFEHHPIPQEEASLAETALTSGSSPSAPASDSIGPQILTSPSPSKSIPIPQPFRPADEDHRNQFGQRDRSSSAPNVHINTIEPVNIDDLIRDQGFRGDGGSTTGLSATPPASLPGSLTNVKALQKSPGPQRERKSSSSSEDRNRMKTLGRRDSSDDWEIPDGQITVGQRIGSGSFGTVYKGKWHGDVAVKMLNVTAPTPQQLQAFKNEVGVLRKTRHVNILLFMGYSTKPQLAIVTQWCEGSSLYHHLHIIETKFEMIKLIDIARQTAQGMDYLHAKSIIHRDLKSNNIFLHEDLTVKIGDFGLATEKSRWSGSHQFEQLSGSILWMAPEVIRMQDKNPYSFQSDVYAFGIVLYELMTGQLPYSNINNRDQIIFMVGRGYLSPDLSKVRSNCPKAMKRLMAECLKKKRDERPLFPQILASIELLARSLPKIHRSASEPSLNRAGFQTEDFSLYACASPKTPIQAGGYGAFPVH
T1 sequence (Q96SW2 whole entry): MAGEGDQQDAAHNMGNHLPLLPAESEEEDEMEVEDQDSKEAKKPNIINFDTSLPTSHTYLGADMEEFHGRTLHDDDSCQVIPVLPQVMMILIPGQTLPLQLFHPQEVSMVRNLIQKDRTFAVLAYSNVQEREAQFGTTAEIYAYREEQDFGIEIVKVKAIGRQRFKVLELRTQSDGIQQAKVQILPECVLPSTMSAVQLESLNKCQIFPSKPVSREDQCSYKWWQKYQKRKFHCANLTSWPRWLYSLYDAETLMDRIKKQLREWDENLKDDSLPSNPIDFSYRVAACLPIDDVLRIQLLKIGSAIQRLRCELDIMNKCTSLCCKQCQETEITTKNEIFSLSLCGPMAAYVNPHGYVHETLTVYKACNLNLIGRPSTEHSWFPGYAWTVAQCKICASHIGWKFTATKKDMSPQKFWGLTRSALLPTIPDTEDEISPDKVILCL
T1 sequence (Q16531 whole entry partner): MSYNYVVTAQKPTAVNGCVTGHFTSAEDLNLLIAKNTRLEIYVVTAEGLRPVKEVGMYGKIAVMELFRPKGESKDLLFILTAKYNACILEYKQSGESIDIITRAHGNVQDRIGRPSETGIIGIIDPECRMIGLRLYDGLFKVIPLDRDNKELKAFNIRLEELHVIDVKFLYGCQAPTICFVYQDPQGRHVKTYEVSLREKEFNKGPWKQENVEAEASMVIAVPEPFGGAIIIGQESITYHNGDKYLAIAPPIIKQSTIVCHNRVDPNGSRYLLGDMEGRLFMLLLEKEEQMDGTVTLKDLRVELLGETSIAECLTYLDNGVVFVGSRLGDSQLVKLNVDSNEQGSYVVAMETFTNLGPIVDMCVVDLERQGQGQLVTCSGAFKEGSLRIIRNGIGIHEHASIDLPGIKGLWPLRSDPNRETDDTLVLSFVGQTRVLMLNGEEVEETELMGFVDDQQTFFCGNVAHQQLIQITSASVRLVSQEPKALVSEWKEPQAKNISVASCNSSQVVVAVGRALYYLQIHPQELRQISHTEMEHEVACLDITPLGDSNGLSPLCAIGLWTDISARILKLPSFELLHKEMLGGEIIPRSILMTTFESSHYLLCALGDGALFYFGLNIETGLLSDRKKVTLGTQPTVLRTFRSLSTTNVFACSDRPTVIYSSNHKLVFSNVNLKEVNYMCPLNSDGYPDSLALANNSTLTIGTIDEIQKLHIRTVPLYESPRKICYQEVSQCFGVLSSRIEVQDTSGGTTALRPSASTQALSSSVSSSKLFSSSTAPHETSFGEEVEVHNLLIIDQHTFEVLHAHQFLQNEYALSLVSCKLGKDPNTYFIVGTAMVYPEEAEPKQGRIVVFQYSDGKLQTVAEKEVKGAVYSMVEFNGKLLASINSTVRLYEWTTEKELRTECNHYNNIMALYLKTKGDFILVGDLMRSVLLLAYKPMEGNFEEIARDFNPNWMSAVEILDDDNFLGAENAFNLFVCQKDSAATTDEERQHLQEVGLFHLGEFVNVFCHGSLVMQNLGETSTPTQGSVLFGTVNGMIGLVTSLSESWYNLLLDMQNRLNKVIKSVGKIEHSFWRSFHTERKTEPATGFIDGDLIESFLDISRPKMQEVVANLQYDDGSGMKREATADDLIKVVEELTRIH

For `CCN(C)S(=O)(=O)Nc1ccc(F)c(Oc2ccc3ncc(OCC4CCN(C5CCC(c6ccc(NC7CCC(=O)NC7=O)cc6F)CC5)CC4)nc3c2)c1C#N` (single isomer, unassigned) [Compound 117, 7-[2-cyano-3-[[ethyl(methyl)sulfamoyl]amino]-6-fluoro-phenoxy]-2-[[1-[4-[4-[(2,6-dioxo-3-piperidyl)amino]-2-fluoro-phenyl]cyclohexyl]-4-piperidyl]methoxy]quinoxaline], in the experiment on A375-NRAS^Q61K cells, the GI50 is less than 1000 nM; the “CTGlo A375.11 96 hours Emax” value was “** (<90% and >50%)”. For the same compound, the DC50 on BRAF V600E (setting [1]) was less than 1000 nM. Besides, at BRAF V600E (setting [2]), the DC50 was less than 1000 nM. Further, the “HiBiT-Degradation A375.10 BRAF 2 hours Emax” value at BRAF V600E (setting [3]) was “*** (<=50%)”.
Compound `N#Cc1c(NS(=O)(=O)N2CC[C@@H](F)C2)ccc(F)c1Oc1ccc2ncn(C3COC4(CCN(C5CCC(c6ccc(NC7CCC(=O)NC7=O)cc6F)CC5)CC4)C3)c(=O)c2c1` (single isomer, unassigned) [Compound 143] yielded a GI50 in the experiment on A375-NRAS^Q61K cells (Homo sapiens, 96 h) of less than 1000 nM. Besides, the Emax with A375-NRAS^Q61K cells (Homo sapiens, 96 h) was less than 50%; on BRAF V600E (setting [4]), less than 50%. The DC50 on BRAF V600E (setting [1]) and at BRAF V600E (setting [2]) was less than 1000 nM in each case.
`CN(CCO)S(=O)(=O)Nc1ccc(F)c(Oc2ccc3ncc([C@H]4COC5(CCN(C6CCC(c7cc8c(cc7F)c(N7CCC(=O)NC7=O)nn8C)CC6)CC5)C4)nc3c2)c1C#N` (single isomer, unassigned) [Compound 176] returned a GI50 in the experiment with A375-NRAS^Q61K cells (Homo sapiens, 96 h) of less than 1000 nM. Also, the Emax was 50 to 90% in the experiment with A375-NRAS^Q61K cells (Homo sapiens, 96 h) and less than 50% at BRAF V600E (setting [4]). Moreover, the DC50 on BRAF V600E (setting [1]) and at BRAF V600E (setting [2]) was less than 1000 nM in each case.
Regarding `CCN(C)S(=O)(=O)Nc1ccc(F)c(Oc2ccc3ncn([C@@H]4CO[C@@]5(CCN(C6CCC(c7cc8c(cc7F)c(N7CCC(=O)NC7=O)nn8C)CC6)C5)C4)c(=O)c3c2)c1C#N` (single isomer, unassigned) [Compound 287], in the experiment with A375-NRAS^Q61K cells, the GI50 is less than 1000 nM and the “CTGlo A375.11 96 hours Emax” value was “*** (<=50%)”. Also, the “HiBiT-Degradation A375.10 BRAF 2 hours Emax” value at BRAF V600E (setting [3]) is on record as “*** (<=50%)”. Moreover, the DC50 on BRAF V600E (A375.10 cells, HiBiT, BRAF V600E, 24 hours, read-out: HiBiT-Degradation A375.10 BRAF 24 hours DC50) was less than 1000 nM. On BRAF V600E (A375.10 cells, HiBiT, BRAF V600E, 24 hours, read-out: HiBiT-Degradation A375.10 BRAF 24 hours Emax), the Emax is less than 50%. Besides, the DC50 on BRAF V600E (A375.10 cells, HiBiT, BRAF V600E, 24 hours, read-out: HiBiT-Degradation A375.10 BRAF 24 hours IP) is less than 1000 nM.
As for `CCN(C)S(=O)(=O)Nc1ccc(F)c(Oc2ccc3ncn([C@@H]4C[C@@H]5CN(C6CCC(c7cc8c(cc7F)c(N7CCC(=O)NC7=O)nn8C)CC6)C[C@@H]5C4)c(=O)c3c2)c1C#N` (single isomer, unassigned) [Compound 16], the GI50 in the experiment with A375-NRAS^Q61K cells lay within 1000 to 10000 nM. Also, the Emax is less than 50% in the experiment on A375-NRAS^Q61K cells (Homo sapiens, 96 h) and 50 to 90% on BRAF V600E (setting [4]). Besides, the DC50 at BRAF V600E (setting [1]) and at BRAF V600E (setting [2]) was less than 1000 nM in each case.
On to `CN(CCO)S(=O)(=O)Nc1ccc(F)c(Oc2ccc3ncn([C@H]4COC5(CCN([C@H]6C[C@@H](c7ccc(NC8CCC(=O)NC8=O)cc7F)C6)CC5)C4)c(=O)c3c2)c1C#N` (stereo partly drawn) [Compound 168, (3R)-3-[6-[2-cyano-6-fluoro-3-[[2-hydroxyethyl(methyl)sulfamoyl]amino]phenoxy]-4-oxo-quinazolin-3-yl]-8-[3-[4-[(2,6-dioxo-3-piperidyl)amino]-2-fluoro-phenyl]cyclobutyl]-1-oxa-8-azaspiro[4.5]decane], for which the GI50 in the experiment with A375-NRAS^Q61K cells (Homo sapiens, 96 h) was greater than 10000 nM. For the same compound, the Emax in the experiment with A375-NRAS^Q61K cells (Homo sapiens, 96 h) is 50 to 90%; on BRAF V600E (setting [4]) it was 50 to 90%. In addition, the DC50 at BRAF V600E (setting [1]) and on BRAF V600E (setting [2]) was less than 1000 nM each time.
On to `Cn1nc(N2CCC(=O)NC2=O)c2cc(F)c(C3CCC(N4CCC5(CC4)CC(c4cnc6ccc(Oc7c(F)ccc(NS(=O)(=O)N8CC[C@@H](F)C8)c7C#N)cc6n4)C5)CC3)cc21` (stereo partly drawn) [Compound 267, (3R)-N-[2-cyano-3-[3-[7-[4-[3-(2,4-dioxohexahydropyrimidin-1-yl)-5-fluoro-1-methyl-indazol-6-yl]cyclohexyl]-7-azaspiro[3.5]nonan-2-yl]quinoxalin-6-yl]oxy-4-fluoro-phenyl]-3-fluoro-pyrrolidine-1-sulfonamide], for which, in the experiment on A375-NRAS^Q61K cells (Homo sapiens, 96 h), the GI50 was less than 1000 nM. In addition, the Emax in the experiment with A375-NRAS^Q61K cells (Homo sapiens, 96 h) was less than 50%; at BRAF V600E (setting [5]), less than 50%. The DC50 on BRAF V600E (setting [1]) and on BRAF V600E (setting [2]) was less than 1000 nM each time.
`Cn1nc(N2CCC(=O)NC2=O)c2cc(F)c(N3CC4(CC(N5CCC6(CC5)CC(c5cnc7ccc(Oc8c(F)ccc(NS(=O)(=O)C9CCCC9)c8C#N)cc7n5)C6)C4)C3)cc21` [Compound 283, N-[2-cyano-3-[3-[7-[2-[3-(2,4-dioxohexahydropyrimidin-1-yl)-5-fluoro-1-methyl-indazol-6-yl]-2-azaspiro[3.3]heptan-6-yl]-7-azaspiro[3.5]nonan-2-yl]quinoxalin-6-yl]oxy-4-fluoro-phenyl]cyclopentanesulfonamide] returned a GI50 in the experiment on A375-NRAS^Q61K cells (Homo sapiens, 96 h) of less than 1000 nM. Further, the Emax was 50 to 90% in the experiment on A375-NRAS^Q61K cells (Homo sapiens, 96 h) and less than 50% at BRAF V600E (setting [4]). In addition, the DC50 at BRAF V600E (setting [6]) and at BRAF V600E (setting [7]) was less than 1000 nM throughout.
In turn, `Cn1nc(N2CCC(=O)NC2=O)c2cc(F)c(N3CC4(CC(N5CCC6(CC5)CC(c5cnc7ccc(Oc8c(F)ccc(NS(=O)(=O)N9CC[C@@H](F)C9)c8C#N)cc7n5)C6)C4)C3)cc21` [Compound 265, (3R)-N-[2-cyano-3-[3-[7-[2-[3-(2,4-dioxohexahydropyrimidin-1-yl)-5-fluoro-1-methyl-indazol-6-yl]-2-azaspiro [3.3]heptan-6-yl]-7-azaspiro [3.5]nonan-2-yl]quinoxalin-6-yl]oxy-4-fluoro-phenyl]-3-fluoro-pyrrolidine-1-sulfonamide] displayed a GI50 with A375-NRAS^Q61K cells (Homo sapiens, 96 h) of less than 1000 nM. The Emax is less than 50% in the experiment with A375-NRAS^Q61K cells (Homo sapiens, 96 h) and less than 50% on BRAF V600E (setting [4]). The DC50 at BRAF V600E (setting [6]) and at BRAF V600E (setting [7]) was less than 1000 nM each time.
The compound `CN(CCO)S(=O)(=O)Nc1ccc(F)c(Oc2ccc3ncn([C@H]4COC5(CCC(N6CCC(c7cc8c(cc7F)c(N7CCC(=O)NC7=O)nn8C)C(F)(F)C6)CC5)C4)c(=O)c3c2)c1C#N` (single isomer, unassigned) [Compound 212] returned a GI50 in the experiment with A375-NRAS^Q61K cells (Homo sapiens, 96 h) of less than 1000 nM. Moreover, the Emax in the experiment with A375-NRAS^Q61K cells (Homo sapiens, 96 h) is 50 to 90%; on BRAF V600E (setting [4]), less than 50%. Moreover, the DC50 at BRAF V600E (setting [1]) and at BRAF V600E (setting [2]) was less than 1000 nM in each case.
`CCN(C)S(=O)(=O)Nc1ccc(F)c(Oc2ccc3ncc(CCC4CCN(C5CCC(c6ccc(NC7CCC(=O)NC7=O)cc6F)CC5)CC4)nc3c2)c1C#N` (single isomer, unassigned) [Compound 131, 7-[2-cyano-3-[[ethyl(methyl)sulfamoyl]amino]-6-fluoro-phenoxy]-2-[2-[1-[4-[4-[(2,6-dioxo-3-piperidyl)amino]-2-fluoro-phenyl]cyclohexyl]-4-piperidyl]ethyl]quinoxaline] gave a GI50 with A375-NRAS^Q61K cells greater than 10000 nM. Further, the Emax lay in the range of 50 to 90% with A375-NRAS^Q61K cells (Homo sapiens, 96 h) and 50 to 90% on BRAF V600E (setting [4]). Besides, the DC50 at BRAF V600E (setting [1]) was less than 1000 nM; at BRAF V600E (setting [2]), greater than 10000 nM.
Regarding `CCN(C)S(=O)(=O)Nc1ccc(F)c(Oc2ccc3ncnc(OC4CC5(C4)CN(C4CCC(c6cc7c(cc6F)c(N6CCC(=O)NC6=O)nn7C)CC4)C5)c3c2)c1C#N` (single isomer, unassigned) [Compound 232, 6-[2-cyano-3-[[ethyl(methyl)sulfamoyl]amino]-6-fluoro-phenoxy]-4-[[2-[4-[3-(2,4-dioxohexahydropyrimidin-1-yl)-5-fluoro-1-methyl-indazol-6-yl]cyclohexyl]-2-azaspiro[3.3]heptan-6-yl]oxy]quinazoline], in the experiment with A375-NRAS^Q61K cells (Homo sapiens, 96 h), the GI50 was greater than 10000 nM. The Emax in the experiment on A375-NRAS^Q61K cells (Homo sapiens, 96 h) is 50 to 90%; at BRAF V600E (setting [5]), 50 to 90%. In addition, the DC50 on BRAF V600E (setting [1]) and at BRAF V600E (setting [2]) was less than 1000 nM throughout.
`CCN(C)S(=O)(=O)Nc1ccc(F)c(C(=O)c2ccc3ncn([C@H]4COC5(CCN(C6CCC(c7cc8c(cc7F)c(N7CCC(=O)NC7=O)nn8C)CC6)CC5)C4)c(=O)c3c2)c1F` (stereo partly drawn) [Compound 208, (3R)-8-[4-[3-(2,4-dioxohexahydropyrimidin-1-yl)-5-fluoro-1-methyl-indazol-6-yl]cyclohexyl]-3-[6-[3-[[ethyl(methyl)sulfamoyl]amino]-2,6-difluoro-benzoyl]-4-oxo-quinazolin-3-yl]-1-oxa-8-azaspiro[4.5]decane] returned a GI50 in the experiment with A375-NRAS^Q61K cells (Homo sapiens, 96 h) of less than 1000 nM. Besides, the Emax in the experiment on A375-NRAS^Q61K cells (Homo sapiens, 96 h) was 50 to 90%; on BRAF V600E (setting [5]) it was less than 50%. The DC50 at BRAF V600E (setting [1]) and at BRAF V600E (setting [2]) was less than 1000 nM each time.
